Here are results for three molecules from patent US20230398130A1, “METHODS AND COMPOSITIONS FOR DIFFERENTIATING STEM CELLS” (Massachusetts Institute of Technology, priority 2020, published 2023).

Assay [1] concerns ISC-enriched organoids. The assay can be described thus: Primary screen, 384-well 2.5-D organoid differentiation (ENR+CD, 6 days): basal lysozyme secretion (LYZ.NS). The following applies: for Dose.FC.LYZ.NS: FC vs plate median; for Z.LYZ.NS: standard z score of FC. It counts as cell-based, murine. From the text:
(§1) High-throughput screening.

Assay [2] concerns ISC-enriched organoids. Nature of the assay: Primary screen, 384-well 2.5-D organoid differentiation (ENR+CD, 6 days): carbachol-induced lysozyme secretion (LYZ.S). Format: cell-based, murine. The following applies: FC vs plate median.
Source text: as §1

Assay [3] concerns ISC-enriched organoids. Nature of the assay: Primary screen, 384-well 2.5-D organoid differentiation (ENR+CD, 6 days, Target Selective Inhibitor Library, vs whole-plate median): ATP (CellTiter-Glo 3D, CTG). The note with it: for Dose.FC.CTG: FC vs plate median; for Z.CTG: standard z score of FC.
[4] abbreviates: primary screen, dose 0.08 uM, ENR+CD 6 days.
[5] abbreviates: primary screen, dose 0.40 uM, ENR+CD 6 days.
Setting [6] is: primary screen, dose 2.00 uM, ENR+CD 6 days.
Setting [7] is: primary screen, dose 10.00 uM, ENR+CD 6 days.

Molecules are shown by their SMILES.

Turning to `O=C(/C=C/c1cccc(S(=O)(=O)Nc2ccccc2)c1)NO` [Belinostat (PXD101)], the Dose.FC.LYZ.NS in the assay with ISC-enriched organoids [1] (setting [4]) was 0.008 log 2 fold change; with ISC-enriched organoids [1] (setting [5]), 0.129 log 2 fold change; with ISC-enriched organoids [1] (setting [6]) it was −0.173 log 2 fold change; with ISC-enriched organoids [1] (setting [7]) it was −0.196 log 2 fold change. The Z.LYZ.NS is given as 0.067 with ISC-enriched organoids [1] (primary screen, dose 0.08 uM); 1.125 in the assay on ISC-enriched organoids [1] (primary screen, dose 0.40 uM); −1.510 with ISC-enriched organoids [1] (primary screen, dose 2.00 uM); −1.709 in the assay on ISC-enriched organoids [1] (primary screen, dose 10.00 uM). Also, the Dose.FC.LYZ.S is −0.059 log 2 fold change in the assay with ISC-enriched organoids [2] (setting [4]), 0.042 log 2 fold change in the assay on ISC-enriched organoids [2] (setting [5]), −0.264 log 2 fold change in the assay on ISC-enriched organoids [2] (setting [6]) and −0.327 log 2 fold change in the assay with ISC-enriched organoids [2] (setting [7]). Besides, the Dose.FC.CTG is recorded as −0.227 log 2 fold change in the assay on ISC-enriched organoids [3] (setting [4]), −0.055 log 2 fold change with ISC-enriched organoids [3] (setting [5]), −0.782 log 2 fold change in the assay with ISC-enriched organoids [3] (setting [6]) and −1.122 log 2 fold change in the assay with ISC-enriched organoids [3] (setting [7]). The Z.CTG was −0.543 in the assay on ISC-enriched organoids [3] (primary screen, dose 0.08 uM); −0.133 in the assay on ISC-enriched organoids [3] (primary screen, dose 0.40 uM); −1.868 in the assay on ISC-enriched organoids [3] (primary screen, dose 2.00 uM); −2.679 in the assay on ISC-enriched organoids [3] (primary screen, dose 10.00 uM).

Regarding `CC(C)C[C@H](NC(=O)[C@@H](NC(=O)c1cccc(-c2ccccc2)n1)[C@@H](C)O)B(O)O` [CEP-18770 (Delanzomib)], the Dose.FC.LYZ.NS in the assay with ISC-enriched organoids [1] (Dose 0.08 uM, ENR+CD, 6 days) is given as −0.108 log 2 fold change; in the assay with ISC-enriched organoids [1] (Dose 0.40 uM, ENR+CD, 6 days) it was −0.076 log 2 fold change; with ISC-enriched organoids [1] (Dose 2.00 uM, ENR+CD, 6 days), −0.063 log 2 fold change; in the assay on ISC-enriched organoids [1] (Dose 10.00 uM, ENR+CD, 6 days), −0.035 log 2 fold change. Also, the Z.LYZ.NS is −0.937 with ISC-enriched organoids [1] (Dose 0.08 uM), −0.664 in the assay with ISC-enriched organoids [1] (Dose 0.40 uM), −0.546 in the assay on ISC-enriched organoids [1] (Dose 2.00 uM) and −0.308 in the assay with ISC-enriched organoids [1] (Dose 10.00 uM). Moreover, the Dose.FC.LYZ.S in the assay with ISC-enriched organoids [2] (Dose 0.08 uM, ENR+CD, 6 days) is on record as −0.179 log 2 fold change; in the assay on ISC-enriched organoids [2] (Dose 0.40 uM, ENR+CD, 6 days), −0.159 log 2 fold change; with ISC-enriched organoids [2] (Dose 2.00 uM, ENR+CD, 6 days), −0.180 log 2 fold change; in the assay on ISC-enriched organoids [2] (Dose 10.00 uM, ENR+CD, 6 days) it was −0.149 log 2 fold change. Further, the Dose.FC.CTG is recorded as −0.953 log 2 fold change in the assay on ISC-enriched organoids [3] (Dose 0.08 uM, ENR+CD, 6 days); −1.642 log 2 fold change in the assay with ISC-enriched organoids [3] (Dose 0.40 uM, ENR+CD, 6 days); −0.990 log 2 fold change with ISC-enriched organoids [3] (Dose 2.00 uM, ENR+CD, 6 days); −1.148 log 2 fold change in the assay on ISC-enriched organoids [3] (Dose 10.00 uM, ENR+CD, 6 days). In addition, the Z.CTG in the assay on ISC-enriched organoids [3] (Dose 0.08 uM) was −2.276; in the assay on ISC-enriched organoids [3] (Dose 0.40 uM) it was −3.923; in the assay with ISC-enriched organoids [3] (Dose 2.00 uM) it was −2.364; in the assay with ISC-enriched organoids [3] (Dose 10.00 uM), −2.742.

As to `O=C(NC(NC(=S)Nc1ccc(F)c([N+](=O)[O-])c1)C(Cl)(Cl)Cl)C(c1ccccc1)c1ccccc1` (stereo not drawn) [CGK733], the Dose.FC.LYZ.NS is given as 0.099 log 2 fold change with ISC-enriched organoids [1] (Dose 0.08 uM, ENR+CD, 6 days); −0.026 log 2 fold change with ISC-enriched organoids [1] (Dose 0.40 uM, ENR+CD, 6 days); −0.099 log 2 fold change with ISC-enriched organoids [1] (Dose 2.00 uM, ENR+CD, 6 days); −0.122 log 2 fold change in the assay on ISC-enriched organoids [1] (Dose 10.00 uM, ENR+CD, 6 days). Moreover, the Z.LYZ.NS is on record as 0.863 with ISC-enriched organoids [1] (Dose 0.08 uM), −0.222 with ISC-enriched organoids [1] (Dose 0.40 uM), −0.865 with ISC-enriched organoids [1] (Dose 2.00 uM) and −1.063 in the assay with ISC-enriched organoids [1] (Dose 10.00 uM). Besides, the Dose.FC.LYZ.S in the assay with ISC-enriched organoids [2] (Dose 0.08 uM, ENR+CD, 6 days) is given as 0.008 log 2 fold change; in the assay on ISC-enriched organoids [2] (Dose 0.40 uM, ENR+CD, 6 days), −0.018 log 2 fold change; in the assay on ISC-enriched organoids [2] (Dose 2.00 uM, ENR+CD, 6 days), −0.125 log 2 fold change; in the assay with ISC-enriched organoids [2] (Dose 10.00 uM, ENR+CD, 6 days) it was −0.230 log 2 fold change. Further, the Dose.FC.CTG with ISC-enriched organoids [3] (Dose 0.08 uM, ENR+CD, 6 days) is −0.362 log 2 fold change; with ISC-enriched organoids [3] (Dose 0.40 uM, ENR+CD, 6 days), −0.093 log 2 fold change; in the assay on ISC-enriched organoids [3] (Dose 2.00 uM, ENR+CD, 6 days), −0.244 log 2 fold change; in the assay with ISC-enriched organoids [3] (Dose 10.00 uM, ENR+CD, 6 days) it was −0.478 log 2 fold change. In addition, the Z.CTG is −0.864 in the assay on ISC-enriched organoids [3] (Dose 0.08 uM), −0.221 in the assay on ISC-enriched organoids [3] (Dose 0.40 uM), −0.582 in the assay with ISC-enriched organoids [3] (Dose 2.00 uM) and −1.143 in the assay with ISC-enriched organoids [3] (Dose 10.00 uM).
